Assay results reported in patent US10406207B2, “Peptide conjugates of GLP-1 receptor agonists and gastrin and their use” (priority 2010, dated 2019).
Like-named read-outs stand apart in the source and are kept apart here. Numbered stars: 1 amine (or outer) side, 2 acyl side, 3 side chain; on linkers, the order of the positions; unused ones are H or OH. Square brackets hold non-standard residues; d marks the D form. Side chains are listed from the residue outwards. Peptide text beside a SMILES is read from it. * marks the point of attachment. γGlu = O=C(O)[C@H](CCC(=O)[*:2])N[*:1]; Palmitoyl = CCCCCCCCCCCCCCCC(=O)*; Orn = NCCC[C@H](N)C(=O)O; AEEA = NCCOCCOCC(=O)O

What was measured:
human CCK-B R = target: T1, human CCK-B R (Homo sapiens, UniProt P32239); test: Human CCK-B receptor efficacy assay (AlphaScreen SureFire p-ERK); type: cell-based; conditions: read-out: hCCK-B R EC50
T1 construct: expressed in transfected cells
T1 sequence (P32239 1-447): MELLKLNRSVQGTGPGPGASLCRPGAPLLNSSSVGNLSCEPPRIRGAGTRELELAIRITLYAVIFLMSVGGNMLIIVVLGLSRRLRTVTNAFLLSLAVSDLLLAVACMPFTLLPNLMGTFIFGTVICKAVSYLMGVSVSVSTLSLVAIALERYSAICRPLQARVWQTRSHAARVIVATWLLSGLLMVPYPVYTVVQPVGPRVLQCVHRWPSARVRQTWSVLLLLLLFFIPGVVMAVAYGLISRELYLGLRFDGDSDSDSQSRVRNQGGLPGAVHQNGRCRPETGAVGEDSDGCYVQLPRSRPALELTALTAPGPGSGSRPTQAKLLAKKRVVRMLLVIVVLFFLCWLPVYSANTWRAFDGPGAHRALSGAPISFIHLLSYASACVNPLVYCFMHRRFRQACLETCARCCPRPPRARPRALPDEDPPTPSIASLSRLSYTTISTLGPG
Description: CCK-B Receptor (CCK-B R) Efficacy Assay:
In vitro effects of peptide conjugates of the invention were estimated by measuring p-ERK (using the AlphaScreen™ SureFire p-ERK assay) in HEK293 cells stably expressing the human and mouse CCK-B R (high-affinity Gastrin receptor), respectively. The Gastrin receptor efficacy assays (AlphaScreen™ SureFire p-ERK assay) were performed as follows:
The CCK-B R expressing cells in question were seeded at 20,000 cells/well in 100 μl growth medium [DMEM, 10% FCS, Penicillin (100 IU/ml), Streptomycin (100 μg/ml)] in a 96-well plate coated with poly-D-lysine. The cells were incubated in an incubator (37° C., 5% 002) for two days.
The growth medium was changed to 80 μl of serum-free medium [DMEM, Penicillin (100 IU/ml), Streptomycin (100 μg/ml)] per well, and incubation of the cells was continued for 19 hours in the incubator (37° C., 5% CO2).
After 19 hours, 20 μl of serum-free medium containing one of 5 different concentrations of peptide conjugate was added (performed in triplicate for each concentration), and the cells were incubated for 5 min. at room temperature. • 2. The stimulation medium was discarded by quickly turning the plate upside down, and 60 μl 1× lysis buffer (from the SureFire assay kit) was added per well. • 3. The plate was shaken on a plate-shaker for 5 min and then placed on ice. • 4. SureFire P-ERK assay: 4 μl of each supernatant was transferred to a 384 well proxiplate (Perkin Elmer). • 5. 4 μl of each of the two control lysates (unstimulated and stimulated) were added to the proxiplate in duplicate. • 6. […] 7 μl of the latter reaction buffer+activation buffer+beads per well were added in the proxiplate, the mix being resuspended carefully before addition to the wells. • 7. The plate was incubated for 2 hours in a dark box in a 22° C. incubator. • 8. The plate was analyzed on an Envision™ light-emission plate reader (Perkin-Elmer) using the appropriate reading program (Perkin-Elmer).

human GLP-1 R = target: T2, human GLP-1 R (Homo sapiens, UniProt P43220); test: Human GLP-1 receptor efficacy assay (cAMP induction, FlashPlate); type: cell-based; conditions: read-out: hGLP-1 R EC50
T2 construct: expressed in transfected cells
Description: On the day of analysis, growth medium was removed and the cells were washed once with 200 μl Tyrode buffer [Tyrode's Salts (9.6 g/l), 10 mM HEPES, pH 7.4]. […] The reaction was stopped by addition of 25 μl 0.5 M HCl and incubated on ice for 60 min.

T2 sequence (P43220 24-463): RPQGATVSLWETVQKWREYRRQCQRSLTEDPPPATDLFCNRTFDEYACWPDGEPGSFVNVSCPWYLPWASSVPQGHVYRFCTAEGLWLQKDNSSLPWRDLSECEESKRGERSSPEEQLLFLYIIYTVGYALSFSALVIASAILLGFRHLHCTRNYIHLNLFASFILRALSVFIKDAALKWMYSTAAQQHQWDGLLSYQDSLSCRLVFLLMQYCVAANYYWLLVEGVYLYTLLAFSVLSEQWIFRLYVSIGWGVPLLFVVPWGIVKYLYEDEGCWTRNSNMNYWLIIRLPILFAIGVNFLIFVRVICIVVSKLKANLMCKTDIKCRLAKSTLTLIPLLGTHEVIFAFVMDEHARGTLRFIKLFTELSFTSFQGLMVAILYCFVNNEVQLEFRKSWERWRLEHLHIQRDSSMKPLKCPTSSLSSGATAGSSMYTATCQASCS

SMILES	EC50 (human CCK-B R; Table 2)	EC50 (human GLP-1 R; Table 2)	EC50 (human CCK-B R; Table 3)	EC50 (human GLP-1 R; Table 3)
CC[C@H](C)[C@H](NC(=O)[C@H](Cc1ccccc1)NC(=O)[C@H](CC(C)C)NC(=O)[C@H](CCCNC(=N)N)NC(=O)[C@@H](NC(=O)[C@H](C)NC(=O)[C@H](CCC(=O)O)NC(=O)[C@H](CCCCN)NC(=O)[C@H](CCC(=O)O)NC(=O)[C@H](CC(C)C)NC(=O)[C@H](Cc1ccc(O)cc1)NC(=O)[C@H](CCCNC(=N)N)NC(=O)[C@H](CO)NC(=O)[C@H](CC(C)C)NC(=O)[C@H](CC(=O)O)NC(=O)[C@H](CO)NC(=O)[C@@H](NC(=O)[C@H](Cc1ccccc1)NC(=O)[C@@H](NC(=O)CNC(=O)[C@H](CCC(=O)O)NC(=O)CNC(=O)[C@@H](N)Cc1c[nH]cn1)[C@@H](C)O)[C@@H](C)O)C(C)C)C(=O)N[C@@H](CCC(=O)O)C(=O)N[C@@H](Cc1ccccc1)C(=O)N[C@@H](CC(C)C)C(=O)N[C@@H](CCCNC(=N)N)C(=O)NCCOCCOCC(=O)N[C@@H](Cc1ccc(O)cc1)C(=O)NCC(=O)N[C@@H](Cc1c[nH]c2ccccc12)C(=O)N[C@@H](CC(C)C)C(=O)N[C@@H](CC(=O)O)C(=O)N[C@@H](Cc1ccccc1)C(N)=O [Compound 92, [Arg12,27,Leu14,Lys16,Phe25,Tyr13]Exendin-4(1-27)-Peg3-[Leu4]Gastrin6] (H-HGEGTFTSDLSRYLEKEAVRLFIEFLR[AEEA]YGWLDF-NH2)	26 nM	0.17 nM	–	–
CCCCCCCCCCCCCCCC(=O)N[C@@H](CCC(=O)NCCCC[C@H](NC(=O)CNC(=O)[C@H](CCCNC(=N)N)NC(=O)[C@@H](NC(=O)[C@H](CC(C)C)NC(=O)[C@H](Cc1c[nH]c2ccccc12)NC(=O)[C@H](C)NC(=O)[C@@H](NC(=O)[C@H](Cc1ccccc1)NC(=O)[C@H](CCC(=O)O)NC(=O)[C@H](CCCNC(=N)N)NC(=O)[C@H](C)NC(=O)[C@H](C)NC(=O)[C@H](CCC(N)=O)NC(=O)CNC(=O)[C@H](CCC(=O)O)NC(=O)[C@H](CC(C)C)NC(=O)[C@H](Cc1ccc(O)cc1)NC(=O)[C@H](CO)NC(=O)[C@H](CO)NC(=O)[C@@H](NC(=O)[C@H](CC(=O)O)NC(=O)[C@H](CO)NC(=O)[C@@H](NC(=O)[C@H](Cc1ccccc1)NC(=O)[C@@H](NC(=O)CNC(=O)[C@H](CCC(=O)O)NC(=O)CNC(=O)[C@@H](N)Cc1c[nH]cn1)[C@@H](C)O)[C@@H](C)O)C(C)C)[C@@H](C)CC)C(C)C)C(=O)NCC(=O)NCCOCCOCC(=O)NCCOCCOCC(=O)N[C@@H](Cc1ccc(O)cc1)C(=O)NCC(=O)N[C@@H](Cc1c[nH]c2ccccc12)C(=O)N[C@@H](CC(C)C)C(=O)N[C@@H](CC(=O)O)C(=O)N[C@@H](Cc1ccccc1)C(N)=O)C(=O)O [Compound 110, [Arg26,34,Gly8,Lys(Hexadecanoyl-isoGlu)36]GLP-1(7-37)-Peg3-Peg3-[Leu4]Gastrin6] (H-HGEGTFTSDVSSYLEGQAAREFIAWLVRGK([γGlu-Palmitoyl])G[AEEA][AEEA]YGWLDF-NH2)	–	–	29 nM	0.12 nM
CC[C@H](C)[C@H](NC(=O)[C@H](Cc1ccccc1)NC(=O)[C@H](CC(C)C)NC(=O)[C@H](CCCCN)NC(=O)[C@@H](NC(=O)[C@H](C)NC(=O)[C@H](CCC(=O)O)NC(=O)[C@H](CCC(=O)O)NC(=O)[C@H](CCC(=O)O)NC(=O)[C@H](CC(C)C)NC(=O)[C@H](Cc1ccc(O)cc1)NC(=O)[C@H](CCCNC(=N)N)NC(=O)[C@H](CO)NC(=O)[C@H](CC(C)C)NC(=O)[C@H](CC(=O)O)NC(=O)[C@H](CO)NC(=O)[C@@H](NC(=O)[C@H](Cc1ccccc1)NC(=O)[C@@H](NC(=O)CNC(=O)[C@H](CCC(=O)O)NC(=O)CNC(=O)[C@@H](N)Cc1c[nH]cn1)[C@@H](C)O)[C@@H](C)O)C(C)C)C(=O)N[C@@H](CCC(=O)O)C(=O)N[C@@H](Cc1ccccc1)C(=O)N[C@@H](CC(C)C)C(=O)N[C@@H](CCCNC(=N)N)C(=O)NCCOCCOCC(=O)N[C@@H](Cc1ccc(O)cc1)C(=O)NCC(=O)N[C@@H](Cc1c[nH]c2ccccc12)C(=O)N[C@@H](CC(C)C)C(=O)N[C@@H](CC(=O)O)C(=O)N[C@@H](Cc1ccccc1)C(N)=O [Compound 93, [Arg12,27,Leu14,Lys20,Phe25,Tyr13]Exendin-4(1-27)-Peg3-[Leu4]Gastrin6] (H-HGEGTFTSDLSRYLEEEAVKLFIEFLR[AEEA]YGWLDF-NH2)	26 nM	0.058 nM	–	–
CC[C@H](C)[C@H](NC(=O)[C@H](Cc1ccccc1)NC(=O)[C@H](CC(C)C)NC(=O)[C@H](CCCNC(=N)N)NC(=O)[C@@H](NC(=O)[C@H](C)NC(=O)[C@H](CCC(=O)O)NC(=O)[C@H](CCC(=O)O)NC(=O)[C@H](CCC(=O)O)NC(=O)[C@H](CC(C)C)NC(=O)[C@H](Cc1ccc(O)cc1)NC(=O)[C@H](CCCCN)NC(=O)[C@H](CO)NC(=O)[C@H](CC(C)C)NC(=O)[C@H](CCC(=O)O)NC(=O)[C@H](CO)NC(=O)[C@@H](NC(=O)[C@H](Cc1ccccc1)NC(=O)[C@@H](NC(=O)CNC(=O)[C@H](CCC(=O)O)NC(=O)CNC(=O)[C@@H](N)Cc1c[nH]cn1)[C@@H](C)O)[C@@H](C)O)C(C)C)C(=O)N[C@@H](CCC(=O)O)C(=O)N[C@@H](Cc1ccccc1)C(=O)N[C@@H](CC(C)C)C(=O)N[C@@H](CCCCN)C(=O)N[C@@H](CCCN)C(=O)N[C@@H](CCCN)C(=O)N[C@@H](Cc1c[nH]c2ccccc12)C(=O)N[C@@H](CC(C)C)C(=O)N[C@@H](CC(=O)O)C(=O)N[C@@H](Cc1ccccc1)C(N)=O [Compound 100, [Glu9,Leu14,Phe25,Tyr13]Exendin-4(1-27)-Orn-Orn-[Leu2]Gastrin4] (H-HGEGTFTSELSKYLEEEAVRLFIEFLK[Orn][Orn]WLDF-NH2)	860 nM	0.11 nM	–	–
CC[C@H](C)[C@H](NC(=O)[C@H](Cc1ccccc1)NC(=O)[C@H](CC(C)C)NC(=O)[C@H](CCCNC(=N)N)NC(=O)[C@@H](NC(=O)[C@H](C)NC(=O)[C@H](CCC(=O)O)NC(=O)[C@H](CCC(=O)O)NC(=O)[C@H](CCC(=O)O)NC(=O)[C@H](CC(C)C)NC(=O)[C@H](Cc1ccc(O)cc1)NC(=O)[C@H](CCCNC(=N)N)NC(=O)[C@H](CO)NC(=O)[C@H](CC(C)C)NC(=O)[C@H](CC(=O)O)NC(=O)[C@H](CO)NC(=O)[C@@H](NC(=O)[C@H](Cc1ccccc1)NC(=O)[C@@H](NC(=O)CNC(=O)[C@H](CCC(=O)O)NC(=O)CNC(=O)[C@@H](N)Cc1c[nH]cn1)[C@@H](C)O)[C@@H](C)O)C(C)C)C(=O)N[C@@H](CCCCN)C(=O)N[C@@H](Cc1ccccc1)C(=O)N[C@@H](CC(C)C)C(=O)N[C@@H](CCCNC(=N)N)C(=O)NCCOCCOCC(=O)N[C@@H](Cc1ccc(O)cc1)C(=O)NCC(=O)N[C@@H](Cc1c[nH]c2ccccc12)C(=O)N[C@@H](CC(C)C)C(=O)N[C@@H](CC(=O)O)C(=O)N[C@@H](Cc1ccccc1)C(N)=O [Compound 94, [Arg12,27,Leu14,Lys24,Phe25,Tyr13]Exendin-4(1-27)-Peg3-[Leu4]Gastrin6] (H-HGEGTFTSDLSRYLEEEAVRLFIKFLR[AEEA]YGWLDF-NH2)	36 nM	0.13 nM	–	–
CC[C@H](C)[C@H](NC(=O)[C@H](Cc1ccccc1)NC(=O)[C@H](CC(C)C)NC(=O)[C@H](CCCNC(=N)N)NC(=O)[C@@H](NC(=O)[C@H](C)NC(=O)[C@H](CCC(=O)O)NC(=O)[C@H](CCCCN)NC(=O)[C@H](CCC(=O)O)NC(=O)[C@H](CCSC)NC(=O)[C@H](CCC(N)=O)NC(=O)[C@H](CCCCN)NC(=O)[C@H](CO)NC(=O)[C@H](CC(C)C)NC(=O)[C@H](CC(=O)O)NC(=O)[C@H](CO)NC(=O)[C@@H](NC(=O)[C@H](Cc1ccccc1)NC(=O)[C@@H](NC(=O)CNC(=O)[C@H](CCC(=O)O)NC(=O)CNC(=O)[C@@H](N)Cc1c[nH]cn1)[C@@H](C)O)[C@@H](C)O)C(C)C)C(=O)N[C@@H](CCC(=O)O)C(=O)N[C@@H](Cc1c[nH]c2ccccc12)C(=O)N[C@@H](CC(C)C)C(=O)N[C@@H](CCCCN)C(=O)N[C@@H](CC(N)=O)C(=O)NCCOCCOCC(=O)NCCOCCOCC(=O)N[C@@H](Cc1ccc(O)cc1)C(=O)NCC(=O)N[C@@H](Cc1c[nH]c2ccccc12)C(=O)N[C@@H](CC(C)C)C(=O)N[C@@H](CC(=O)O)C(=O)N[C@@H](Cc1ccccc1)C(N)=O [Compound 81, [Lys16]Exendin-4(1-28)-Peg3-Peg3-[Leu4]Gastrin6] (H-HGEGTFTSDLSKQMEKEAVRLFIEWLKN[AEEA][AEEA]YGWLDF-NH2)	15 nM	0.032 nM	–	–
CC[C@H](C)[C@H](NC(=O)[C@H](Cc1ccccc1)NC(=O)[C@H](CC(C)C)NC(=O)[C@H](CCCNC(=N)N)NC(=O)[C@@H](NC(=O)[C@H](C)NC(=O)[C@H](CCC(=O)O)NC(=O)[C@H](CCC(=O)O)NC(=O)[C@H](CCC(=O)O)NC(=O)[C@H](CC(C)C)NC(=O)[C@H](Cc1ccc(O)cc1)NC(=O)[C@H](CCCCN)NC(=O)[C@H](CO)NC(=O)[C@H](CC(C)C)NC(=O)[C@H](CCC(=O)O)NC(=O)[C@H](CO)NC(=O)[C@@H](NC(=O)[C@H](Cc1ccccc1)NC(=O)[C@@H](NC(=O)CNC(=O)[C@H](CCC(=O)O)NC(=O)CNC(=O)[C@@H](N)Cc1c[nH]cn1)[C@@H](C)O)[C@@H](C)O)C(C)C)C(=O)N[C@@H](CCC(=O)O)C(=O)N[C@@H](Cc1ccccc1)C(=O)N[C@@H](CC(C)C)C(=O)N[C@@H](CCCCN)C(=O)NCCOCCOCC(=O)NCCOCCOCC(=O)N[C@@H](Cc1ccc(O)cc1)C(=O)NCC(=O)N[C@@H](Cc1c[nH]c2ccccc12)C(=O)N[C@@H](CC(C)C)C(=O)N[C@@H](CC(=O)O)C(=O)N[C@@H](Cc1ccccc1)C(N)=O [Compound 88, [Glu9,Leu14,Phe25,Tyr13]Exendin-4(1-27)-Peg3-Peg3-[Leu4]Gastrin6] (H-HGEGTFTSELSKYLEEEAVRLFIEFLK[AEEA][AEEA]YGWLDF-NH2)	20 nM	0.046 nM	–	–
